Measurements published in patent US20100173983A1, “METHOD FOR INDUCING AUTOPHAGY” (priority 2007, published 2010).

What was measured:
XIAP = assay: Western blot of R-182 cells, XIAP; format: cell-based, Human; conditions: 5 μg/ml over 24 hr
Source text: (§1) FIG. 8. Molecular evidence of autophagic cell death in R-182 ovarian cancer cells induced by Cpd 1. […] B, Beclin 1 binds to Bcl-2. Immunoprecipitation study using mitochondrial preparations of cells pre-treated with Cpd 1 as stated in A, and subjected to beclin 1 immunoprecitation. Immunoprecipitated fractions were washed in PBS, subjected to SDS-PAGE, blotted and then probed with a mouse anti-Bcl-2 antibody. Actin and Topo-1 were used as loading control. C, Depolarized cells resulting from over-expression of Bax and Beclin 1 following administration of Cpd 1. Cells were treated with Cpd 1 as described in A, pelleted and washed in HBSS and the cell pellet resuspended in the reaction buffer for JC-1 (Biovision, Inc. MitoCapture™ K250-100). HBSS-washed cells were analysed by flow cytometry (λexcit=488 nm and (λemit=530 nm for green fluorescence (depolarized) or 590 nm for red fluorescence (polarized). 10,000 gated events were measured with a BD FACScalibur. Results were expressed as mean±standard deviation (n=3).
(§2) After treatment with Cpd 1, protein was extracted from cells and measured as previously described (Kamsteeg et al., 2003). For separation of the cytoplasmic and mitochondrial fractions, cell pellets were processed using the ApoAlert Cell Fractionation kit (Promega) according to the manufacturer's instructions. […]

caspase 8 = assay: Caspase-Glo 8 assay in R182 cells; format: cell-based, Human; conditions: R182 ovarian cancer explants; dose response and duration of exposure (5 μg/ml, 0-25 hr)
Protocol: FIG. 4. Comparative induction of caspase 8 in R182 ovarian cancer explants by Cpd 1 and dehydroequol using either dose response (A) or duration of exposure (B). Caspase 8 activity was assessed using the Caspase-Glo 8 assay.
(§3) For caspase activity assays, 10 μg of protein in 50 μL total volume was mixed with 50 μL of equilibrated Caspase-Glo 3/7, 8, or 9 reagents (Promega). After incubating at room temperature for 1 hour, luminescence was measured using TD 20/20 Luminometer (Turner Designs, Sunnyvale, Calif.). Blank values were subtracted and fold-increase in activity was calculated based on activity measured from untreated cells. Each sample was measured in triplicate.

Bax = assay: Western blot of R-182 mitochondrial extracts, Bax; format: cell-based, Human; conditions: R-182 cells, 5 μg/ml over 24 hr
Source text: as §1, §2

Akt = assay: Western blot of R-182 lysates, Akt; format: cell-based, Human; conditions: R-182 cells, 5 μg/ml
Source text: (§4) FIG. 10. The expression of upstream regulators of autophagy are also modulated in response to Cpd 1. […] B-actin was included as a loading control. B, Proposed mechanism of Cpd 1 induced autophagic cell death.
(§5) After treatment with Cpd 1, protein was extracted from cells and measured as previously described (Kamsteeg et al., 2003). For separation of the cytoplasmic and mitochondrial fractions, cell pellets were processed using the ApoAlert Cell Fractionation kit (Promega) according to the manufacturer's instructions. 20 μg protein was denatured in sample buffer (2.5% sodium dodecyl sulfate [SDS], 10% glycerol, 5% β-mercapto-ethanol, 0.15 M Tris, pH 6.8, and 0.01% bromophenol blue) and subjected to 12% SDS polyacrylamide gel electrophoresis (SDS-PAGE) as previously described (Kamsteeg et al., 2003). The following antibodies and concentrations were used: mouse anti-Bax (BD Biosciences, 1:500), rabbit anti-actin (Sigma, 1:10,000), rabbit anti-cytochrome c (BD Biosciences, 1:1,000), mouse anti-Cox-4 (BD Biosciences, 1:500), rabbit anti-beclin 1 (Santa Cruz Biotechnology, 1:600), mouse anti LC3 (Nanotools, 1:500). […] Proteins were observed using enhanced chemiluminescence (Pierce, Rockford, Ill.).

caspase 3 = assay: Caspase-Glo 3/7 assay in R182 cells; format: cell-based, Human; conditions: R182 ovarian cancer explants; dose response and duration of exposure (5 μg/ml, 0-25 hr)
Protocol: FIG. 2. Comparative induction of caspase 3 in R182 ovarian cancer explants by Cpd 1 and dehydroequol using either dose response (A) or duration of exposure (B). Caspase 3 activity was assessed using the Caspase-Glo 3/7 assays.
as §3

mTOR = assay: Western blot of R-182 lysates, mTOR; format: cell-based, Human
Source text: as §4, §5

endonuclease G = assay: Immunohistology of xenograft tumour sections, endonuclease G; format: in vivo, SCID mice; conditions: 100 mg/kg, compared to control
Protocol: FIG. 11. Cpd 1 markers of autophagy observed in in vitro studies are also present in vivo. […] T-S6K served as loading control.
In vivo studies using tumour-bearing mice were conducted to further confirm that Cpd 1 induces programmed cell death via an autophagic process. SCID mice bearing chemoresistant epithelial ovarian cancer (EOC) xenografts derived from a primary cell culture of a patient's ascites were administered with increasing doses of Cpd 1 by intraperotineal injection resulting in reductions in both tumor volume and tumor weight (data not shown). Representative tumours excised from these mice and tumour-bearing mice administered vehicle control were then fixed, sectioned and subjected to immunohistopathology analysis using an α-enodonuclease G directed monoclonal antibody. Tumor samples were blocked with either 10% horse or goat serum in PBS for 1 hour at room temperature. Following three washes with PBS, samples were incubated overnight at 4° C. with either the anti-EndoG (LifeSpan Bioscience) antibody or mouse IgG1 isotype as negative controls. After three washes with PBS, specific staining was detected by incubating with a peroxidase-conjugated horse anti-mouse antibody (1:1000 dilution) for 1 hour followed by a five-minute incubation with DAB substrate (Vector Laboratories). […]

ovarian cancer cells = assay: Cell viability in presence of pan caspase inhibitor ZVAD-FMK; format: cell-based, Human; conditions: ZVAD-FMK 0.5 μg/ml
Protocol: FIG. 5. Comparative cell viability plots of dehydroequol (A) and Cpd 1 (B) treated cells in the presence and absence of the pan caspase inhibitor ZVAD-FMK (0.5 μg/ml).
Cell viability was evaluated using the CellTiter 96 Aqueous One Solution Cell Proliferation Assay (Promega, Madison, Wis.) according to the manufacturer's instructions. The values from the treated cells were compared with the values generated from the untreated cells and reported as percent viability. Each experiment was performed in triplicate.

R182 cells = assay: Phase-contrast microscopy, vacuole formation; format: cell-based, Human; conditions: 5 μg/ml over 4 hr and 8 hr
Protocol: FIG. 6. Phase-contrast images of R182 cells treated with vehicle (NT) or 5 μg/ml Cpd 1 over 4 hr and 8 hr (A).
R182 cells treated with Cpd 1 were observed microscopically to determine if morphological and structural alterations to cellular integrity took place. Cells treated with Cpd 1 were hyper-vacuolated (see FIG. 6) and the plasma membrane appeared to bleb or form folds. […] These morphological changes observed in Cpd 1 treated cells are considered the hall mark of autophagy with the increased vacuoles formation thought to result in autophagosomes which eventually fuse with lysosomes to form autolysosomes. These structures contain catabolic hydrolases which are released into the cytoplasm when the lysosomal membrane becomes compromised.

Structure (SMILES): COc1ccc([C@H]2c3ccc(O)c(C)c3OC[C@H]2c2ccc(O)cc2)cc1 (stereo in doubt) [Cpd 1, 3-(4-hydroxyphenyl)-4-(4-methoxyphenyl)-8-methylchroman-7-ol]
- XIAP expression (XIAP): remains unchanged
- caspase 8 activity (caspase 8): did not induce caspase 8 activity
- expression of Bax in mitochondrial extracts (Bax): markedly upregulated over time
- Akt phosphorylation (p-Akt) (Akt): reduced up to 120 minutes post exposure
- total Akt (t-Akt) expression (Akt): remained unchanged
- caspase 3 activity (caspase 3): did not induce caspase 3 activity
- mTOR expression (mTOR; R-182 cells, 5 μg/ml): reduced up to 120 minutes post exposure
- phosphorylated mTOR levels in soluble extracts of cells (mTOR; cells treated in vitro, compared to control): decreased
- expression of nuclear endonuclease G in tumour sections (endonuclease G): increased
- cell death in the presence of pan caspase inhibitor ZVAD-FMK (ovarian cancer cells): cell death proceeded
- vacuole formation (R182 cells): vacuole formation is clearly evident
